Source: US20140335179A1, “[…] OF ATORVASTATIN HEMICALCIUM” (DSM SINOCHEM PHARMACEUTICALS NETHERLANDS B.V., priority 2011, published 2014)
Where “and” joins values, the source holds several entries; their conditions need not be identical. Equal entries are not always repeated.

How the values were obtained:
[1] = Determination of intrinsic dissolution rate (IDR), stationary disc method, USP 24 apparatus; type: physicochemical; details: 37°C, 100 rpm, hemi calcium salt; for IDR, mean value: 50 mM sodium dihydrogen phosphate buffer pH 6.8 with 2% w/v sodium lauryl sulphate
Description: IDR of crystalline and amorphous atorvastatin hemi-calcium samples was performed by the stationary disc method using USP 24 apparatus. The discs were prepared by compacting 100 mg of powder at 800 psi pressure in a hydraulic press (Hydraulic Unit Model 3912, Carver Inc., WI) with a dwell time of 15 sec, in 8 mm punch die set (surface area 0.5 cm^2). The dissolution studies were performed in 500 ml of 50 mM sodium dihydrogen phosphate buffer (pH 6.8) containing 2% w/v sodium lauryl sulphate maintained at a temperature of 37±0.5° C. and a rotational speed of 100 rpm. Samples were withdrawn at regular intervals, replaced with dissolution medium, and analyzed by UV spectrophotometry at 242 nm up to 60 minutes.

[2] = mean value of 35 separate batches
Description: • Instrument: The PSD was determined using a Malvern Mastersizer 2000 equipped with hydro 2000S(A), flow cell, Fourier lenses and a multi-element detector • Data handling system: Malvern Mastersizer 2000 version 5.21 • Technique used: Wet method • Optical parameters: Optical presentation comprising of: • Particle RI: 1.5 • Absorption: 0 • Dispersant RI: 1.375 or 1.4 • Analysis Model: General purpose • Sample measurement snaps: 5000 • Background meas. snaps: 5000 • No. of measurement cycles: 5 • Delay between measurements: 5 sec • Preparation of sample solution: About 25 mg of the sample was weighed in a beaker and about 20 mL of dispersion medium was added with constant stirring and sonification for 30 sec resulting in a uniform dispersion. After sonification the measurement was performed after the obscure value was stabilized between 10-20% • Procedure: • a. The flow cell was assembled to the instrument • b. Dispersion medium poured to Hydro 2000S(A) unit • c. Stirrer speed was set at 2200 rpm • d. Instrument was aligned after feeding the required parameters • e. Background was measured • f. Sample was analyzed by recording five measurements for each sample preparation and the mean RSD values were collected at D(v, 0.1), D(v, 0.5) and D(v, 0.9)

[3] = Specific surface area determination by nitrogen gas sorption (BET); type: physicochemical; details: individual samples, hemi calcium salt
Description: Specific surface area of the samples was determined using nitrogen gas sorption (Smartsorb, Smart Instruments, Mumbai, India). Prior to measurements, weighed samples were regenerated by degassing to remove moisture and contamination. The regenerated sample was dipped in liquid nitrogen and the quantity of the adsorbed gas was measured using thermal conductivity detector and then integrated using electronic circuit in terms of counts. The instrument was calibrated by injecting known quantity of nitrogen. The measured parameters were then used to calculate surface area of the sample by employing the adsorption theories of Brunauer, Emmett and Teller (BET).

| SMILES | IDR, mean value [1] [mg/cm^2/min] | PSD d10 [2] [μm] | PSD d50 [2] [μm] | PSD d90 [2] [μm] | surface area [3] | IDR values of three samples ([1]; three different micronized samples of the Example, pH 6.8 buffer with 2% SLS) |
| --- | --- | --- | --- | --- | --- | --- |
| CC(C)c1c(C(=O)Nc2ccccc2)c(-c2ccccc2)c(-c2ccc(F)cc2)n1CC[C@@H](O)C[C@@H](O)CC(=O)O.CC(C)c1c(C(=O)Nc2ccccc2)c(-c2ccccc2)c(-c2ccc(F)cc2)n1CC[C@@H](O)C[C@@H](O)CC(=O)O.CC(C)c1c(C(=O)Nc2ccccc2)c(-c2ccccc2)c(-c2ccc(F)cc2)n1CC[C@@H](O)C[C@@H](O)CC(=O)[O-].CC(C)c1c(C(=O)Nc2ccccc2)c(-c2ccccc2)c(-c2ccc(F)cc2)n1CC[C@@H](O)C[C@@H](O)CC(=O)[O-].[Ca+2] (relative stereo) [amorphous atorvastatin, [R-(R*,R*)]-2-(4-fluorophenyl)-β,δ-dihydroxy-5-(1-methylethyl)-3-phenyl-4-[(phenylamino)carbonyl]-1H-pyrrole-1-heptanoic acid hemi calcium salt, reference compound] | 0.281 | – | – | – | – | – |
| CC(C)c1c(C(=O)Nc2ccccc2)c(-c2ccccc2)c(-c2ccc(F)cc2)n1CC[C@@H](O)C[C@@H](O)CC(=O)O.CC(C)c1c(C(=O)Nc2ccccc2)c(-c2ccccc2)c(-c2ccc(F)cc2)n1CC[C@@H](O)C[C@@H](O)CC(=O)O.CC(C)c1c(C(=O)Nc2ccccc2)c(-c2ccccc2)c(-c2ccc(F)cc2)n1CC[C@@H](O)C[C@@H](O)CC(=O)[O-].CC(C)c1c(C(=O)Nc2ccccc2)c(-c2ccccc2)c(-c2ccc(F)cc2)n1CC[C@@H](O)C[C@@H](O)CC(=O)[O-].[Ca+2] (relative stereo) [crystalline atorvastatin hemi-calcium having a well-defined ] [[R-(R*,R*)]-2-(4-fluorophenyl)-β,δ-dihydroxy-5-(1-methylethyl)-3-phenyl-4-[(phenylamino)carbonyl]-1H-pyrrole-1-heptanoic acid hemi calcium salt] | 0.132 | 3 | 6 | 12 | 8.550±0.051 m^2/g and 8.384±0.303 m^2/g and 8.684±0.216 m^2/g | 0.146±0.013 mg/cm^2/min and 0.130±0.017 mg/cm^2/min and 0.109±0.006 mg/cm^2/min |
